Data taken from patent US8440641B2, “Phthalocyanine salt formulations” (Case Western Reserve University, priority 2009, dated 2013).

What was measured:
Assay type in all cases: physicochemical
[1] = Chemical stability (air, chromatography); settings: air
[2] = Qualitative solubility in representative organic solvents; settings: for solubility in CH2Cl2: CH2Cl2, qualitative; for solubility in dimethylformamide / solubility in ethanol / solubility in hexanes / solubility in toluene: qualitative
[3] = Salt concentration in polar and nonpolar solvents (Table 2)
[4] = Concentration of salt in solution, gel and film; settings: Tween 80 21.6 mg
Text: The identification of water soluble phthalocyanine salts also makes possible the preparation of aqueous gel formulations of phthalocyanine salts. […] These phthalocyanine salt-containing gels provide gel formulations of phthalocyanine salts suitable for topical use. Thin films of the gels can also be dried to form coherent, stable, water-swellable films. These films provide formulations for phthalocyanine salt-containing patches that can be used for topical administration.

| stability in air [1] | solubility in CH2Cl2 [2] | solubility in dimethylformamide [2] | solubility in ethanol [2] | solubility in hexanes [2] | solubility in toluene [2] | time of hydrolysis by air to Pc 4 [1] [h] | salt concentration, […] aqueous Tween 80 ([3]; […] aqueous Tween 80) [mM] | solubility in aqueous solution ([3]; aqueous solution, in words) | salt concentration, hexanes ([3]; hexanes) [mM] | solubility in hexanes and mineral oil ([3]; hexanes, mineral oil (Nujol), in words) | salt concentration, mineral oil ([3]; mineral oil) [mM] | product conc ([4]; film: Pc 4 0.33 mg, HEC 118 mg) [%] | product conc ([4]; gel: Pc 4 0.33 mg, H2O 3.0 mL, HEC 118 mg) [%] | product conc ([4]; solution: Pc 4 0.33 mg, H2O 3.0 mL) [mg/mL] | Molecule |
| --- | --- | --- | --- | --- | --- | --- | --- | --- | --- | --- | --- | --- | --- | --- | --- |
| stable | soluble | soluble | soluble | insoluble | moderately soluble |  |  |  |  |  |  |  |  |  | CN(C)CCC[Si](C)(C)O[Si-2]123(F)n4c5c6ccccc6c4N=C4c6ccccc6C(=[N+]41)N=c1c4ccccc4c(n12)=NC1=[N+]3C(=N5)c2ccccc21 [Compound 1, FSiPcOSi(CH3)2(CH2)3N(CH3)2] |
|  | soluble | soluble | soluble | insoluble | moderately soluble | ≤ 2 |  |  |  |  |  |  |  |  | [CH3C(O)C(O)OSiPcOSi(CH3)2(CH2)3NH(CH3)2]^+Cl^− [Compound 29] |
|  | soluble | soluble | soluble | insoluble | moderately soluble |  | 0.165 | show solubility | 0.0006 | little | 0.0002 | ~0.2 | ~0.01 | 0.11 | [HOSiPcOSi(CH3)2(CH2)3NH(CH2)21]^+[OC(O)CHOHCH2C(O)OH]^− [Compound 6] |
| stable | soluble | soluble | soluble | insoluble | moderately soluble |  |  |  |  |  |  |  |  |  | CC(=O)O[Si-2]123(O[Si](C)(C)CCCN(C)C)n4c5c6ccccc6c4N=C4c6ccccc6C(=[N+]41)N=c1c4ccccc4c(n12)=NC1=[N+]3C(=N5)c2ccccc21 [Compound 2, CH3C(O)OSiPcOSi(CH3)2(CH2)3N(CH3)2] |
